Test results: US10815230B2, “Casein kinase 1 delta inhibitor” (ELECTROPHORETICS LIMITED, priority 2015, dated 2020)

Key:
Experiment in all cases: Kinase selectivity, % remaining activity
Type in all cases: biochemical
Conditions in all cases: 10 μM compound, 10 μM ATP, duplicate
ABL2/ARG = ABL2/ARG (Homo sapiens, UniProt P42684)
Procedure: (§1) A two-tier strategy to determine the selectivity of compound A was applied: first, the compound was tested at a single concentration (in duplicate) to determine the %-remaining activity of the target kinase. Subsequently, the IC50 of compound A and comparative compounds for casein kinase 1 delta were determined.
(§2) Compounds were tested in single dose duplicate mode at a concentration of 10 μM (in DMSO) and reactions were carried out at 10 μM ATP, Table 3 reports the % of remaining activity (relative to DMSO).

ALK5/TGFBR1 = molecular target: T1, ALK5/TGFBR1 (Homo sapiens, UniProt P36897)
T1 sequence (P36897 34-503): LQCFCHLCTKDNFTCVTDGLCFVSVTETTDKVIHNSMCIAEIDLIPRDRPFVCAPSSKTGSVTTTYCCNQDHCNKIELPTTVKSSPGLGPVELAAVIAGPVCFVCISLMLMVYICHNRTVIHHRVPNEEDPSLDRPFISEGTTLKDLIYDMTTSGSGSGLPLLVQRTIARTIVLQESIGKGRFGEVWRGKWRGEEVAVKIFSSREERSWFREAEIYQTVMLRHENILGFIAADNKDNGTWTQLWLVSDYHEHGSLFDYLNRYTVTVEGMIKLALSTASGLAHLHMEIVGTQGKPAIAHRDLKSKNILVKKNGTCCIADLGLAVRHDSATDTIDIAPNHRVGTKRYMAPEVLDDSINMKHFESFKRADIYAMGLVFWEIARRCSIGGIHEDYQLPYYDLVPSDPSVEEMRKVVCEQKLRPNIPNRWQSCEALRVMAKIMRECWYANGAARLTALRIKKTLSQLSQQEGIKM
Procedure: as §1, §2

CK1e = CK1e (Homo sapiens, UniProt P49674)
Sequence of CK1e (P49674 whole entry): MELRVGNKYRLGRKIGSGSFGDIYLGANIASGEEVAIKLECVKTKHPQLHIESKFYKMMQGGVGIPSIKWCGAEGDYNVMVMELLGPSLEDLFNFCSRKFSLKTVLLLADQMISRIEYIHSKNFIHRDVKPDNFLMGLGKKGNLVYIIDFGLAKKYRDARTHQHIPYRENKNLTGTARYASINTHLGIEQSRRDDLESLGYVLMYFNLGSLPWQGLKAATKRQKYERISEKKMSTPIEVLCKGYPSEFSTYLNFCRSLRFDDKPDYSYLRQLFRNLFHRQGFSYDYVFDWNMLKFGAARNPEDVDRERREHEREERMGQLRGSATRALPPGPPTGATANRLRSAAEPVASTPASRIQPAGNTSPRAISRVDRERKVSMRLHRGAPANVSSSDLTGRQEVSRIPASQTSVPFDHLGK
Procedure: as §1, §2

CK1g1 = CK1g1 (Homo sapiens, UniProt Q9HCP0)
Sequence of CK1g1 (Q9HCP0 whole entry): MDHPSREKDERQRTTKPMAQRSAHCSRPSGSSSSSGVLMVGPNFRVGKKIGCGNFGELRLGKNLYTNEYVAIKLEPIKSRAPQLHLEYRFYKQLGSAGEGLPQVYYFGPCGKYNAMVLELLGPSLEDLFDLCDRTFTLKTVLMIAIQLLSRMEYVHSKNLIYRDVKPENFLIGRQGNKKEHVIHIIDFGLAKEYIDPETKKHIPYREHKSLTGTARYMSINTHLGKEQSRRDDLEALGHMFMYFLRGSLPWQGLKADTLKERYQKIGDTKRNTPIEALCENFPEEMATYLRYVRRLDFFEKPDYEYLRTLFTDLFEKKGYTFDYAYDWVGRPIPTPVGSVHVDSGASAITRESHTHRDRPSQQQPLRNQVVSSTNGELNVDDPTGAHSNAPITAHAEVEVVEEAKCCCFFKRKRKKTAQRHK
Procedure: as §1, §2

CK1g2 = CK1g2 (Homo sapiens, UniProt P78368)
Procedure: as §1, §2

CK1g3 = CK1g3 (Homo sapiens, UniProt Q9Y6M4)
Procedure: as §1, §2

CLK2 = CLK2 (Homo sapiens, UniProt P49760)
Procedure: as §1, §2

EPHA2 = EPHA2 (Homo sapiens, UniProt P29317)
Procedure: as §1, §2

FGFR1 = FGFR1 (Homo sapiens, UniProt P11362)
Sequence of FGFR1 (P11362 22-822): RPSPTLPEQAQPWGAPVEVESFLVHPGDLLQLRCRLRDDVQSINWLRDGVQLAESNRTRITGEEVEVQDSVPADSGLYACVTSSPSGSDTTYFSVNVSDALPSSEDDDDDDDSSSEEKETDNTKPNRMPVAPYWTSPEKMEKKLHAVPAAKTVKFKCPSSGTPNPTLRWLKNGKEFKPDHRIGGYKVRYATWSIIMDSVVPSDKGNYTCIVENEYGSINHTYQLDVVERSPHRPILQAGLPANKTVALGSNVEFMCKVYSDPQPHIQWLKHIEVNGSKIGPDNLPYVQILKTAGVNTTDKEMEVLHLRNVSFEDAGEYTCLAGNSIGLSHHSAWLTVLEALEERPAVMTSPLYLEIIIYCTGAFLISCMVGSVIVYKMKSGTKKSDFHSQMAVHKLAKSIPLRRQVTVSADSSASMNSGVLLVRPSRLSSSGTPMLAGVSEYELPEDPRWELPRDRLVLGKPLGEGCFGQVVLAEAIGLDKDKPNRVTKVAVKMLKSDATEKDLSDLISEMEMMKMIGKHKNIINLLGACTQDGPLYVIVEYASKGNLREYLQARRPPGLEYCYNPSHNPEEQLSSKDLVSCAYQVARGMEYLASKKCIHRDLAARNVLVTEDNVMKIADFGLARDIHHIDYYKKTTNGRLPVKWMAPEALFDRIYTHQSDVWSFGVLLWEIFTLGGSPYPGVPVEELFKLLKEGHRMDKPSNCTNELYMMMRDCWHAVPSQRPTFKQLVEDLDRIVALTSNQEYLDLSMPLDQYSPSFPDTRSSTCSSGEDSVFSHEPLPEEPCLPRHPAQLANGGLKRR
Procedure: as §1, §2

GSK3B = GSK3B (Homo sapiens, UniProt P49841)
Procedure: as §1, §2

JNK2 = JNK2 (Homo sapiens, UniProt P45984)
Procedure: as §1, §2

KDR/VEGFR2 = KDR/VEGFR2 (Homo sapiens, UniProt P35968)
Sequence of KDR/VEGFR2 (P35968 20-1356): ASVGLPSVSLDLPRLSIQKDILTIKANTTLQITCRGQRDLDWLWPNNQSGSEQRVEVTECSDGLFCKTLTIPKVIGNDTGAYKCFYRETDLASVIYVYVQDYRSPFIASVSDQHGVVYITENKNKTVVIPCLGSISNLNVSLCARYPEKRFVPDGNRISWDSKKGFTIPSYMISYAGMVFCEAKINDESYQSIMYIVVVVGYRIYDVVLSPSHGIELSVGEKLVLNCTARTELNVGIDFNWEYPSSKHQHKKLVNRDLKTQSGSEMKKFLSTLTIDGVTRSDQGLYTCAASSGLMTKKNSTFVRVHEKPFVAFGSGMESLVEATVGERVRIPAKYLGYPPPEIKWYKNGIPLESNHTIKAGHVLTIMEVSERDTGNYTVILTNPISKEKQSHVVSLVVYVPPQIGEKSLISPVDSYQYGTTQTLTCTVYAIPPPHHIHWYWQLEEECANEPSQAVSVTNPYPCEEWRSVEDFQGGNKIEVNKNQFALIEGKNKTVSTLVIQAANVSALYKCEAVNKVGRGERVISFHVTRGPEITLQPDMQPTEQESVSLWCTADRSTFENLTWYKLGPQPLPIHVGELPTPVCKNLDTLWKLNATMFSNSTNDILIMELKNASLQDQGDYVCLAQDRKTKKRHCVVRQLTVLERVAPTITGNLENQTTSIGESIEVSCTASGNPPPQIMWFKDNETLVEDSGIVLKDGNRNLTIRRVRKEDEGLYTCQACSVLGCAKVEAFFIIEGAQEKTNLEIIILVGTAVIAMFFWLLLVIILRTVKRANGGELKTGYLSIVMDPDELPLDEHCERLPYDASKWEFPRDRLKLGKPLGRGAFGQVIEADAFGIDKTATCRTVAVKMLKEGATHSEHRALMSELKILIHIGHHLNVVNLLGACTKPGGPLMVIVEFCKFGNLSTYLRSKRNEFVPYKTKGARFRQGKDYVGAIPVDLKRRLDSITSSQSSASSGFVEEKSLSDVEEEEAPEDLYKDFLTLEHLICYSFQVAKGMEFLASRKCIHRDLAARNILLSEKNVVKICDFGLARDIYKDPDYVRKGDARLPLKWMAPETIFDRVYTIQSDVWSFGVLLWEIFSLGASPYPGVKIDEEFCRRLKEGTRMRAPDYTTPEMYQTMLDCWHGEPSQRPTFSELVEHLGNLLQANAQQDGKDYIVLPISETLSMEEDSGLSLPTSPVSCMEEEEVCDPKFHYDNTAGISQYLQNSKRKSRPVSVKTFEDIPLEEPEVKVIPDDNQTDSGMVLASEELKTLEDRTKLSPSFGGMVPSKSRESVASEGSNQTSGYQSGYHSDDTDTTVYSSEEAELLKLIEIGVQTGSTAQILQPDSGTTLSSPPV
Procedure: as §1, §2

LCK = LCK (Homo sapiens, UniProt P06239)
Procedure: as §1, §2

P38a/MAPK14 = P38a/MAPK14 (Homo sapiens, UniProt Q16539)
Procedure: as §1, §2

PDK1/PDPK1 = molecular target: T2, PDK1/PDPK1 (Homo sapiens, UniProt O15530)
T2 sequence (O15530 1-556): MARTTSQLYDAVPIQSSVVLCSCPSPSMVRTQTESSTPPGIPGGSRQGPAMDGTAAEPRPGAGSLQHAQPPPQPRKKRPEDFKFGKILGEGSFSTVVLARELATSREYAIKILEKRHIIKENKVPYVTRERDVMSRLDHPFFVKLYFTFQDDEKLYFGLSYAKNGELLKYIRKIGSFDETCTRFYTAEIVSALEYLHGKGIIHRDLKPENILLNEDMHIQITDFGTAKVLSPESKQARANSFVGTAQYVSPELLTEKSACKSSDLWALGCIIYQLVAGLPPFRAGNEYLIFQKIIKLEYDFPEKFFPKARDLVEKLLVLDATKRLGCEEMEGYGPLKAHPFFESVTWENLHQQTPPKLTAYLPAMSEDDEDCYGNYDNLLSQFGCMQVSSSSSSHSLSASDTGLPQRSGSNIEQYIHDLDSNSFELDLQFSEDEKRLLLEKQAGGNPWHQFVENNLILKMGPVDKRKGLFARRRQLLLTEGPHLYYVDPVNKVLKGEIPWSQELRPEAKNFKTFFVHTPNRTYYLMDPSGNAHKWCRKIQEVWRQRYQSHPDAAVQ
Procedure: as §1, §2

PIM3 = PIM3 (Homo sapiens, UniProt Q86V86)
Procedure: as §1, §2

PKA = PKA (Homo sapiens, UniProt P17612)
Procedure: as §1, §2

PKCb2 = PKCb2 (Homo sapiens, UniProt P05771)
Sequence of PKCb2 (P05771 1-673 isoform P05771-2): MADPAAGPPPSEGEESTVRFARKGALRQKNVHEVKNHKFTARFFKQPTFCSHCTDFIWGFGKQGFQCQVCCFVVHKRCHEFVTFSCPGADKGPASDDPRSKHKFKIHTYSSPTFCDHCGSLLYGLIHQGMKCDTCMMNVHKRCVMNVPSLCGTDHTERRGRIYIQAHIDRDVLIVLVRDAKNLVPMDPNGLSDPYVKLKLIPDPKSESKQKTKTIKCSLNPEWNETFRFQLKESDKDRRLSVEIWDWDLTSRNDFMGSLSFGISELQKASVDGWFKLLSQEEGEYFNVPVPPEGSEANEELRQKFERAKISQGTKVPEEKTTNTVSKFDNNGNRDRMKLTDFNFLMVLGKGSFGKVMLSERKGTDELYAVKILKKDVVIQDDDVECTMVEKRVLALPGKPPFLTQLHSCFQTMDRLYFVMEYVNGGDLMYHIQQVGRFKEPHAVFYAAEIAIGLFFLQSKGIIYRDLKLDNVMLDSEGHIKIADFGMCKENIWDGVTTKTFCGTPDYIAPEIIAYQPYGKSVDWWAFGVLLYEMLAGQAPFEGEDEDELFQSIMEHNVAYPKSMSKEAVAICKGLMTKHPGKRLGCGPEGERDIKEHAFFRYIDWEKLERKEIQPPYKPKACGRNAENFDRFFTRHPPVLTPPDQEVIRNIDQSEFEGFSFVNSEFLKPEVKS
Procedure: as §1, §2

RIPK2 = RIPK2 (Homo sapiens, UniProt O43353)
Procedure: as §1, §2

TNIK = TNIK (Homo sapiens, UniProt Q9UKE5)
Sequence of TNIK (Q9UKE5 whole entry): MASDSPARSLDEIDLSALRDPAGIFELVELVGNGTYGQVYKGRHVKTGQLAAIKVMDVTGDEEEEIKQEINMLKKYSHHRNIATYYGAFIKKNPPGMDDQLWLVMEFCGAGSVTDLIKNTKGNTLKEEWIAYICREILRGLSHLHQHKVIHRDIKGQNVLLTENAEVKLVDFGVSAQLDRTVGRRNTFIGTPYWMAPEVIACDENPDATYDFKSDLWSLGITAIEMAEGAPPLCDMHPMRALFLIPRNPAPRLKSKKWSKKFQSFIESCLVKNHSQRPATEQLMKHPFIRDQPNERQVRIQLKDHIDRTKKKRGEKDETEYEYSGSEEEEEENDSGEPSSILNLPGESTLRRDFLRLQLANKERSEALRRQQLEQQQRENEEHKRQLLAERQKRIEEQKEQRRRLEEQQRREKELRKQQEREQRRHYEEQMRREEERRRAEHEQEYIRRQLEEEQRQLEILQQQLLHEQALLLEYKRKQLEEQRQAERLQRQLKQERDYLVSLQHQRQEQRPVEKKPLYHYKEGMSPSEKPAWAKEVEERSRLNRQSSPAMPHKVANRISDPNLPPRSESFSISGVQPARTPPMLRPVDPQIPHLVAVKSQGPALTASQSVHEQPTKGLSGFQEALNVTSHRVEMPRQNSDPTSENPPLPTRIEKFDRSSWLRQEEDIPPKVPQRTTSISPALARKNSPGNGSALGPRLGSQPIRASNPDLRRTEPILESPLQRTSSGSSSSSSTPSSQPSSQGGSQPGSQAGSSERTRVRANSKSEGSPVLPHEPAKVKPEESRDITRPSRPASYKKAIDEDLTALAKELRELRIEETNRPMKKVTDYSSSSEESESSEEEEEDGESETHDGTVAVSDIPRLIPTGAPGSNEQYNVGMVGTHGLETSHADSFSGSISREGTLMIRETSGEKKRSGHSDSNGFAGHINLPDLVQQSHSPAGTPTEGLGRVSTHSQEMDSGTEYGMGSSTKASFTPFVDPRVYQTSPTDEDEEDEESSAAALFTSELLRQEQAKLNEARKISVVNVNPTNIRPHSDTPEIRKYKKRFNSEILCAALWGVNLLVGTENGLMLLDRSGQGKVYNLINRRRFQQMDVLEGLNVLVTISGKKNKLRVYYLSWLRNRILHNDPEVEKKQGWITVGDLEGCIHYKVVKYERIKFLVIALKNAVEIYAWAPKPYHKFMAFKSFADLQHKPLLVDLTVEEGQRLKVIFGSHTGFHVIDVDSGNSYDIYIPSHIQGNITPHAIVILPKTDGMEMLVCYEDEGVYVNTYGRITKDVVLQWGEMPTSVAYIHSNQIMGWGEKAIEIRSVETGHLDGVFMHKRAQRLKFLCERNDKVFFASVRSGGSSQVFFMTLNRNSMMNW
Procedure: as §1, §2

YES/YES1 = YES/YES1 (Homo sapiens, UniProt P07947)
Procedure: as §1, §2

[1] = read-out: % of remaining activity (relative to DMSO)

Nc1ncc(-c2nc3ccccc3o2)c(-c2ccncc2)n1 [Comparative Compound 324, 5-(1,3-benzoxazol-2-yl)-4-(pyridine-4-yl)pyrimidin-2-amine]
% of remaining activity (relative to DMSO) (ABL2/ARG; listed as Cmp 324): 96.78% | remaining activity at 10 µM (ABL2/ARG; [1]): 101% | % of remaining activity (relative to DMSO) (ALK5/TGFBR1; listed as Cmp 324): 101.71% | remaining activity at 10 µM (ALK5/TGFBR1; [1]): 105% | % of remaining activity (relative to DMSO) (CK1e; listed as Cmp 324): 24.86% | remaining activity at 10 µM (CK1e; [1]): 28.2% | % of remaining activity (relative to DMSO) (CK1g1; listed as Cmp 324): 92.69% | remaining activity at 10 µM (CK1g1; [1]): 99% | % of remaining activity (relative to DMSO) (CK1g2; listed as Cmp 324): 58.69% | remaining activity at 10 µM (CK1g2; [1]): 58% | % of remaining activity (relative to DMSO) (CK1g3; listed as Cmp 324): 62.63% | remaining activity at 10 µM (CK1g3; [1]): 69.9% | % of remaining activity (relative to DMSO) (CLK2; listed as Cmp 324): 92.16% | remaining activity at 10 µM (CLK2; [1]): 96.2% | % of remaining activity (relative to DMSO) (EPHA2; listed as Cmp 324): 105.62% | remaining activity at 10 µM (EPHA2; [1]): 98.7% | % of remaining activity (relative to DMSO) (FGFR1; listed as Cmp 324): 108.45% | remaining activity at 10 µM (FGFR1; [1]): 104% | % of remaining activity (relative to DMSO) (GSK3B; listed as Cmp 324): 80.19% | remaining activity at 10 µM (GSK3B; [1]): 91.3% | % of remaining activity (relative to DMSO) (JNK2; listed as Cmp 324): 91.75% | remaining activity at 10 µM (JNK2; [1]): 95.1% | % of remaining activity (relative to DMSO) (KDR/VEGFR2; listed as Cmp 324): 100.01% | remaining activity at 10 µM (KDR/VEGFR2; [1]): 85.1% | % of remaining activity (relative to DMSO) (LCK; listed as Cmp 324): 95.46% | remaining activity at 10 µM (LCK; [1]): 102% | % of remaining activity (relative to DMSO) (P38a/MAPK14; listed as Cmp 324): 48.46% | remaining activity at 10 µM (P38a/MAPK14; [1]): 53.9% | % of remaining activity (relative to DMSO) (PDK1/PDPK1; listed as Cmp 324): 104.88% | remaining activity at 10 µM (PDK1/PDPK1; [1]): 105% | % of remaining activity (relative to DMSO) (PIM3; listed as Cmp 324): 95.35% | remaining activity at 10 µM (PIM3; [1]): 100% | % of remaining activity (relative to DMSO) (PKA; listed as Cmp 324): 90.27% | remaining activity at 10 µM (PKA; [1]): 90.8% | % of remaining activity (relative to DMSO) (PKCb2; listed as Cmp 324): 103.51% | remaining activity at 10 µM (PKCb2; [1]): 101% | % of remaining activity (relative to DMSO) (RIPK2; listed as Cmp 324): 92.78% | remaining activity at 10 µM (RIPK2; [1]): 92.2% | % of remaining activity (relative to DMSO) (TNIK; listed as Cmp 324): 65.72% | remaining activity at 10 µM (TNIK; [1]): 74.6% | % of remaining activity (relative to DMSO) (YES/YES1; listed as Cmp 324): 95.22% | remaining activity at 10 µM (YES/YES1; [1]): 108%
